Test results reported in a melting point compilation (Tetko et al.; mined from patent text by program, amines drawn as free bases though some values may be those of a salt).

Q: Which melting point does the source give for `CCC(C)CNC(=O)C(CC(O)C(CC(C)C)NC(=O)C(Cc1cscn1)NC(=O)C(Cc1cccc2ccccc12)NC(=O)OC(C)(C)C)C(C)(C)O` (mixture of isomers) here?
A: 90 to 92 °C

Q: With `O=C(O)CCC(=O)NCC(=O)N1c2ccccc2N(Cc2ccccc2)C(=O)[C@H]2CCC[C@H]21` (relative stereo) as the compound, how does the melting point read?
A: 148 to 151 °C

Q: For `CCC(=O)c1cc2c(s1)CCC1CC(=O)N(c3ccc(Cl)cc3)N=C21` (stereo unspecified), which melting point is on record?
A: 135 to 138 °C

Q: For `CC(=Cc1ccc(-c2ccccc2)s1)c1ccccc1`, which melting point is on record?
A: 115 to 125 °C

Q: Which melting point does the source give for `O=c1ccc(-c2ccccc2F)n[nH]1` here?
A: 173 to 175 °C

Q: With `CCCCn1c(CO)nc2c(N)nc3ccccc3c21` as the compound, how does the melting point read?
A: 223 to 225 °C

Q: With `CN1CCC(c2c[nH]c3ccc(C(=O)c4ccccn4)cc23)CC1` as the compound, how does the melting point read?
A: 90 °C

Q: For `N#CCNC(=O)C(=O)Oc1ccc([N+](=O)[O-])cc1`, which melting point is on record?
A: 123 to 124 °C

Q: Which melting point does the source give for `COCOc1c(C)cc(-c2ccc(C(=O)NCCOc3ccc(CC(Oc4ccccc4)C(=O)O)cc3)cc2)cc1C` (stereo unspecified) here?
A: 142 to 143 °C

Q: With `CCn1c2ccccc2c2cc(Nc3nccc(-c4ccc(N5CCNCC5)nc4)n3)ccc21` as the compound, how does the melting point read?
A: 131 to 137 °C

Q: For `O=C1CCC(=O)c2ccccc2N1`, which melting point is on record?
A: 168 to 170 °C

Q: With `CCCCCOC(=O)Cc1sc(F)c(N=c2sc(=O)n3n2CCCC3)c1Cl` as the compound, how does the melting point read?
A: 39 to 41 °C

Q: With `CNC(=O)c1ccccc1Nc1nc(Nc2cc3c(cc2OC)C(=O)N(C)CCC3)ncc1Cl` as the compound, how does the melting point read?
A: 152 to 154 °C

Q: For `CCC=Cc1nc2ccccc2n1Cc1ccc(C(=O)O)cc1`, which melting point is on record?
A: 210 °C

Q: With `CC(C)(C)c1ccc(OP2N(c3ccccc3)P(Oc3ccc(C(C)(C)C)cc3C(C)(C)C)N2c2ccccc2)c(C(C)(C)C)c1` (stereo unspecified) as the compound, how does the melting point read?
A: 162 to 166 °C

Q: With `COCCC1CCCCCc2c1oc(=O)c(C(c1ccccc1)C1CC1)c2O` (stereo unspecified) as the compound, how does the melting point read?
A: 78 to 80 °C

Q: For `CCOC(=O)c1csc(-c2ccc3c(=O)n(CC(C)C)c(CNC(=O)OCC4c5ccccc5-c5ccccc54)c(-c4ccccc4)c3c2)n1`, which melting point is on record?
A: 151 to 152 °C

Q: Which melting point does the source give for `Cc1nc(N2CCN(Cc3ccc(C#N)cc3)C2=O)sc1C(=O)NCc1ccccc1` here?
A: 176 to 178 °C

Q: For `COc1cccc(-c2ccc3ccccc3c2Oc2ccc(C=O)cc2)c1`, which melting point is on record?
A: 125 to 126 °C

Q: For `O=[N+]([O-])c1ccc(Cl)c(NC(=S)NCCO)c1`, which melting point is on record?
A: 158 °C

Q: For `CCC(CC)(CC(=O)Nc1cccc(SCc2ccc3cc(F)ccc3n2)c1)C(=O)O`, which melting point is on record?
A: 117 to 120 °C

Q: Which melting point does the source give for `Cc1cc(C)c(NC(=O)C2c3ccccc3COc3ccc(C)cc32)c(C)c1` (stereo unspecified) here?
A: 148 to 149 °C

Q: With `CCc1c(C(=O)c2cc(C)cc(C)c2)n(C/C=C/CN=[N+]=[N-])c(=O)[nH]c1=O` as the compound, how does the melting point read?
A: 119 to 120 °C

Q: For `CN1CCN(C(=O)CN2C(=O)C(NC(=O)Nc3ccc(Cl)cc3)N=C(c3ccccc3)c3ccccc32)CC1` (stereo unspecified), which melting point is on record?
A: 278 to 280 °C

Q: Which melting point does the source give for `CCCCCS(=O)(=O)NC(=O)CCc1ccc(OCCCOCCOC)cc1Oc1ncc(C(F)(F)F)cc1Cl` here?
A: 95 to 95.8 °C

Q: Which melting point does the source give for `CCCCC(=O)OC1(C(=O)CCl)CCC2C3CC(C)C4CC(=O)CCC4(C)C3(F)C(=O)CC21C` (stereo unspecified) here?
A: 67 to 72 °C

Q: For `CCN(CC)OC(=O)c1cc(C(C)(C)C)c(O)c(C(C)(C)C)c1`, which melting point is on record?
A: 129 to 137 °C

Q: With `CC(=O)NC(C)(C)c1ccc(CN2CCN(c3nccs3)CC2)cc1` as the compound, how does the melting point read?
A: 118 to 120 °C

Q: With `COC(=O)CCCNC(=O)CCCN(C(=O)c1cc(OC)c(OC)c(OC)c1)c1c(C)cccc1C` as the compound, how does the melting point read?
A: 97 to 99 °C

Q: For `C=CCCC(C#N)(C#N)Cc1ccc(OCC(F)(F)F)cc1`, which melting point is on record?
A: 58 °C

Q: With `CC(C)(C)N1C(=O)c2nc(Cl)cc(N)c2C1=O` as the compound, how does the melting point read?
A: 215 to 220 °C

Q: For `CCCS(=O)(=O)c1c(S(N)(=O)=O)c(C)nn1C`, which melting point is on record?
A: 127 to 129 °C

Q: With `CC(=O)Nc1cccc(NC(=O)c2cccc(S(=O)(=O)N3CCCCCC3)c2)c1` as the compound, how does the melting point read?
A: 117 to 120 °C

Q: Which melting point does the source give for `Cc1cc(C)c2c(c1O)C(=O)C(C)(Cc1ccccc1)C2` (stereo unspecified) here?
A: 86 to 87 °C

Q: Which melting point does the source give for `Cc1ccc(-n2c3c(c(=O)c4cccnc42)CCO3)cc1` here?
A: 246 to 248 °C

Q: For `CC(=O)N(O)CC1=C(n2ccccc2=O)c2cc(C(F)(F)F)ccc2OC1(C)C`, which melting point is on record?
A: 188 °C
